Key:
[1] = biological target: PD-1/PD-L1 (Homo sapiens (Human), UniProt Q9NZQ7); experiment: PD-1/PD-L1 Binding Assay (Alphascreen)
Summary of the method: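 PD-1/PD-L1 binding detected by anti-6×His acceptor and streptavidin donor beads after 120 min in the dark at 25 °C. Beforehand, the two proteins were incubated 15 min at 25 °C with inhibitor at 0.015–300 nM (1% DMSO). IC50 comes from a log concentration–response curve.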

[2] = Pharmacokinetic Assay, single oral dose 5 mg/kg (Table 12); assay type: in vivo; settings: mouse, plasma concentration, C57 female mice, single oral dose 5 mg/kg
Protocol: Adult C57 female mice were received to single-dose of the test compounds with 15% DMSO, 10% Kolliphor^@HS 15 and 75% saline as excipients, the mice (n=3) were giving oral administration (intragastric administration) with the compounds at a dose of 5 mg/kg. Time of blood collection: 30 min, 2 h, 4 h. approximately 0.1 mL of whole blood was collected from retro-orbital venous plexus, and placed into tubes that contained K2-EDTA as an anticoagulant. The whole blood were centrifuged at 4° C. and 4000 rpm for 10 min. The plasma was transferred into centrifuge tubes, and stored at −20° C. until being analyzed. Concentrations of test compounds in the plasma samples were analyzed with liquid chromatography-tandem mass spectrometry (LC-MS/MS). Plasma concentration-time data of individual animals was analyzed using Microsoft Excel 2010.

PD-1/PD-L1, sequence (Q9NZQ7 19-238): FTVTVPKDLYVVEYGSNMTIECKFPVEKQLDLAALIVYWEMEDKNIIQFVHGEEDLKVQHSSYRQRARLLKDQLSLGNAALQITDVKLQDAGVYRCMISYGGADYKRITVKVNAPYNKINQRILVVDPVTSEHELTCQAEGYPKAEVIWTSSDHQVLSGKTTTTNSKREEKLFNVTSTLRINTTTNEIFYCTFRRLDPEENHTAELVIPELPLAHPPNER

Structure (SMILES)	IC50 ([1]; range symbols)	concentration at 0.5 h [2]	concentration at 2 h [2]	concentration at 4 h [2]	IC50 ([1]; numeric values)
Cc1c(-c2nc3cc(CN4CCC[C@H]4C(=O)O)c(OC(F)F)cc3o2)cccc1-c1cccc(-c2nc3cc(CN4CCC(F)C4)cc(C#N)c3o2)c1C (stereo partly drawn) [Example 162, ((2-(3′-(7-cyano-5-((3-fluoropyrrolidin-1-yl)methyl)benzo[d]oxazol-2-yl)-2,2′-dimethyl-[1,1′-biphenyl]-3-yl)-6-(difluoromethoxy)benzo[d]oxazol-5-yl)methyl)-L-proline]	5 to 50 nM	0.277 µg/mL	0.67 µg/mL	0.441 µg/mL	–
Cc1c(-c2nc3c(o2)CCOC3)cccc1-c1cccc(-c2nc3cc(CN4CCC[C@H]4C(=O)O)c(OC(F)F)cc3o2)c1C [Example 203, ((6-(difluoromethoxy)-2-(3′-(6,7-dihydro-4H-pyrano[3,4-d]oxazol-2-yl)-2,2′-dimethyl-[1,1′-biphenyl]-3-yl)benzo[d]oxazol-5-yl)methyl)proline]	–	0.819 µg/mL	1.03 µg/mL	0.833 µg/mL	12 nM
Cc1c(-c2nc3cc(CN4CCC(C)(C)C4)c(OC(F)F)cc3o2)cccc1-c1cccc(-c2nc3cc(CN4CCC[C@H]4C(=O)O)c(OC(F)F)cc3o2)c1C [Example 67, ((6-(difluoromethoxy)-2-(3′-(6-(difluoromethoxy)-5-((3,3-dimethylpyrrolidin-1-yl)methyl)benzo[d]oxazol-2-yl)-2,2′-dimethyl-[1,1′-biphenyl]-3-yl)benzo[d]oxazol-5-yl)methyl)-L-proline]	–	0.143 µg/mL	0.418 µg/mL	0.462 µg/mL	6.7 nM
Cc1c(-c2nc3cc(CN4CCC[C@H]4C(=O)O)c(OC(F)F)cc3o2)cccc1-c1cccc(-c2nc3cc(CN4CC(F)C(F)C4)cc(C#N)c3o2)c1C (stereo partly drawn) [Example 164, ((2-(3′-(7-cyano-5-((3,4-difluoropyrrolidin-1-yl)methyl)benzo [d]oxazol-2-yl)-2,2′-dimethyl-[1,1′-biphenyl]-3-yl)-6-(difluoromethoxy)benzo[d]oxazol-5-yl)methyl)-L-proline]	5 to 50 nM	0.294 µg/mL	0.877 µg/mL	0.853 µg/mL	–
Cc1c(-c2ccc3c(c2)CCNC3)cccc1-c1cccc(-c2nc3cc(CN4CCC[C@H]4C(=O)O)c(OC(F)F)cc3o2)c1C [Example 288, ((6-(difluoromethoxy)-2-(2,2′-dimethyl-3′-(1,2,3,4-tetrahydroisoquinolin-6-yl)-[1,1′-biphenyl]-3-yl)benzo[d]oxazol-5-yl)methyl)-L-proline]	–	0.00836 µg/mL	0.0254 µg/mL	0.00968 µg/mL	1.5 nM
Cc1c(-c2ccc(CN3CC[C@H](CO)C3)c(C#N)c2)cccc1-c1cccc(-c2nc3cc(CN4CCC[C@H]4C(=O)O)c(OC(F)F)cc3o2)c1C [Example 240, ((2-(3″-cyano-4″-(((S)-3-(hydroxymethyl)pyrrolidin-1-yl)methyl)-2,2′-dimethyl-[l,1′:3′,1″-terphenyl]-3-yl)-6-(difluoromethoxy)benzo[d]oxazol-5-yl)methyl)-L-proline]	5 to 50 nM	–	–	–	–
Cc1c(-c2nc3cc(CN(C)C)c(OCc4cncc(S(C)(=O)=O)c4)cc3o2)cccc1-c1cccc(-c2nc3cc(CN4CCC[C@H]4C(=O)O)c(OC(F)F)cc3o2)c1C [Example 123, ((6-(difluoromethoxy)-2-(3′-(5-((dimethylamino)methyl)-6-((5-(methylsulfonyl)pyridin-3-yl)methoxy)benzo[d]oxazol-2-yl)-2,2′-dimethyl-[1,1′-biphenyl]-3-yl)benzo[d]oxazol-5-yl)methyl)-L-proline]	0.1 to 5 nM	–	–	–	–
Cc1c(-c2nc3cc(CN[C@@H]4CCC[C@@H]4O)ccc3o2)cccc1-c1cccc(-c2nc3cc(CN4CCC[C@H]4C(=O)O)c(OC(F)F)cc3o2)c1C [Example 99, ((6-(difluoromethoxy)-2-(3′-(5-((((1R,2S)-2-hydroxycyclopentyl)amino)methyl)benzo[d]oxazol-2-yl)-2,2′-dimethyl-[1,1′-biphenyl]-3-yl)benzo[d]oxazol-5-yl)methyl)-L-proline]	–	–	–	–	0.82 nM
Cc1c(-c2nc3cc(CN4CCC[C@H]4C(=O)O)c(OC(F)F)cc3o2)cccc1-c1cccc(-c2nc3cc(CN4CCC(C)(C#N)C4)cc(C#N)c3o2)c1C (stereo partly drawn) [Example 316, ((2-(3′-(7-cyano-5-((3-cyano-3-methylpyrrolidin-1-yl)methyl)benzo[d]oxazol-2-yl)-2,2′-dimethyl-[1,1′-biphenyl]-3-yl)-6-(difluoromethoxy)benzo[d]oxazol-5-yl)methyl)-L-proline]	5 to 50 nM	–	–	–	–
Cc1c(-c2nc3cc(CN4CCC[C@@H]4C(=O)O)c(OC(F)F)cc3o2)cccc1-c1cccc(-c2nc3cc(CN4CCC(F)C4)cc(C#N)c3o2)c1C (stereo partly drawn) [Example 163, ((2-(3′-(7-cyano-5-((3-fluoropyrrolidin-1-yl)methyl)benzo[d]oxazol-2-yl)-2,2′-dimethyl-[1,1′-biphenyl]-3-yl)-6-(difluoromethoxy)benzo[d]oxazol-5-yl)methyl)-D-proline]	5 to 50 nM	–	–	–	–
Cc1c(-c2nc3cc(CN4CCC4(C)O)ccc3o2)cccc1-c1cccc(-c2nc3cc(CN4CCC[C@H]4C(=O)O)c(OC(F)F)cc3o2)c1C (stereo partly drawn) [Example 104, ((6-(difluoromethoxy)-2-(3′-(5-((2-hydroxy-2-methylazetidin-1-yl)methyl)benzo[d]oxazol-2-yl)-2,2′-dimethyl-[1,1′-biphenyl]-3-yl)benzo[d]oxazol-5-yl)methyl)-L-proline]	–	–	–	–	0.19 nM
Cc1c(-c2nc3cc(CN4CCC[C@H]4C(=O)O)c(OC(F)F)cc3o2)cccc1-c1cccc(-c2nc3cc(CN4CCCCC4CCO)cc(C#N)c3o2)c1C (stereo partly drawn) [Example 135, ((2-(3′-(7-cyano-5-((2-(2-hydroxyethyl)piperidin-1-yl)methyl)benzo[d]oxazol-2-yl)-2,2′-dimethyl-[1,1′-biphenyl]-3-yl)-6-(difluoromethoxy)benzo[d]oxazol-5-yl)methyl)-L-proline]	0.1 to 5 nM	–	–	–	–
CCCNCCCN(C)Cc1cc2nc(-c3cccc(-c4cccc(-c5nc6cc(CN7CCC[C@H]7C(=O)O)c(OC(F)F)cc6o5)c4C)c3C)oc2cc1OC(F)F [Example 53, ((6-(difluoromethoxy)-2-(3′-(6-(difluoromethoxy)-5-((methyl(3-(propylamino)propyl)amino)methyl)benzo [d]oxazol-2-yl)-2,2′-dimethyl-[1,1′-biphenyl]-3-yl)benzo[d]oxazol-5-yl)methyl)-L-proline]	0.1 to 5 nM	–	–	–	–
Cc1c(-c2nc3cc(CN4CC5(CCC5)C4)c(OC(F)F)cc3o2)cccc1-c1cccc(-c2nc3cc(CN4CCC[C@H]4C(=O)O)c(OC(F)F)cc3o2)c1C [Example 48, ((2-(3′-(5-((2-azaspiro [3.3]heptan-2-yl)methyl)-6-(difluoromethoxy)benzo[d]oxazol-2-yl)-2,2′-dimethyl-[1,1′-biphenyl]-3-yl)-6-(difluoromethoxy)benzo[d]oxazol-5-yl)methyl)-L-proline]	0.1 to 5 nM	–	–	–	–
Cc1c(-c2nc3cc(CN4CCCC4)cc(C(F)(F)F)c3[nH]2)cccc1-c1cccc(-c2nc3cc(CN4CCC[C@H]4C(=O)O)c(OC(F)F)cc3o2)c1C [Example 301, ((6-(difluoromethoxy)-2-(2,2′-dimethyl-3′-(5-(pyrrolidin-1-ylmethyl)-7-(trifluoromethyl)-1H-benzo[d]imidazol-2-yl)-[1,1′-biphenyl]-3-yl)benzo[d]oxazol-5-yl)methyl)-L-proline]	5 to 50 nM	–	–	–	–
Cc1c(-c2nc3cc(CN4CC(F)C4)c(OC(F)F)cc3o2)cccc1-c1cccc(-c2nc3cc(CN4CCC[C@H]4C(=O)O)c(OC(F)F)cc3o2)c1C [Example 9, ((6-(difluoromethoxy)-2-(3′-(6-(difluoromethoxy)-5-((3-fluoroazetidin-1-yl)methyl)benzo[d]oxazol-2-yl)-2,2′-dimethyl-[1,1′-biphenyl]-3-yl)benzo[d]oxazol-5-yl)methyl)-L-proline]	–	–	–	–	18 nM
Cc1c(-c2nc3cc(CN4CCC[C@H]4C(=O)O)c(OC(F)F)cc3o2)cccc1-c1cccc(-c2nc3cc(CN4CC[C@H](Cl)C4)cc(C#N)c3o2)c1C [Example 261, ((2-(3′-(5-(((S)-3-chloropyrrolidin-1-yl)methyl)-7-cyanobenzo [d]oxazol-2-yl)-2,2′-dimethyl-[1,1′-biphenyl]-3-yl)-6-(difluoromethoxy)benzo[d]oxazol-5-yl)methyl)-L-proline]	0.1 to 5 nM	–	–	–	–
COc1cc(-c2cccc(-c3cccc(-c4nc5cc(CN6CCC[C@H]6C(=O)O)c(OC(F)F)cc5o4)c3C)c2C)cc(F)c1CN1CCCC1 [Example 235, ((6-(difluoromethoxy)-2-(3″-fluoro-5″- methoxy-2,2′-dimethyl-4″-(pyrrolidin-1-ylmethyl)-[1,1′:3′,1″-terphenyl]-3-yl)benzo[d]oxazol-5-yl)methyl)-L-proline]	–	–	–	–	1.8 nM
Cc1c(-c2ccc(CN3CCC(N(C)C)C3)cc2)cccc1-c1cccc(-c2nc3cc(CN4CCC[C@H]4C(=O)O)c(OC(F)F)cc3o2)c1C (stereo partly drawn) [Example 228, ((6-(difluoromethoxy)-2-(4″-((3-(dimethylamino)pyrrolidin-1-yl)methyl)-2,2′-dimethyl-[1,1′:3′,1″-terphenyl]-3-yl)benzo[d]oxazol-5-yl)methyl)-L-proline]	–	–	–	–	4.3 nM

From patent US12187713B2, “Immunomodulators, compositions and methods thereof” (Betta Pharmaceuticals Co., Ltd, priority 2019, dated 2025)
